Data reported in patent publication US9139532B2, “Pyrazolyl guanidine F1F0-atpase inhibitors and therapeutic uses thereof” (Lycera Corporation, priority 2010, dated 2015).
pEC50, pIC50: −log10 of the molar value. Where two headings read alike, the source gives them in different places.

Columns and labels:
F1F0-ATPase = target: T1, F1F0-ATPase (Bos taurus, UniProt P13621); experiment: Inhibition of F1F0-ATPase activity in synthesizing ATP; format: biochemical; conditions: inhibition of ATP synthesis by F1F0-ATPase; read-out: ATP Syn IC50
T1 construct: from tissue

Ramos cells = experiment: Cytotoxicity in Ramos cells; format: cell-based; conditions: cytotoxicity in Ramos cells, read-out: Ramos Cell EC50

| SMILES | pIC50 (F1F0-ATPase) | pEC50 (Ramos cells; Homo sapiens) | pEC50 (Ramos cells) |
| --- | --- | --- | --- |
| O=C(N=C(Nc1cc(-c2ccc(F)cc2)n[nH]1)NC1CCOCC1)c1ccc(Cl)c(F)c1 [Compound A-139] | < 5.00 | < 5.00 |  |
| O=C(/N=C(\Nc1cc(-c2ccccc2)[nH]n1)NC1CCOCC1)c1ccc(Cl)c(F)c1 [Compound A-140] | < 5.00 |  | < 5.00 |
| CC(C)(C)N/C(=N/C(=O)c1ccc(Cl)c(F)c1)Nc1cc(-c2ccccc2)[nH]n1 [Compound A-141] | > 5.00 |  | > 5.00 |
| O=C(/N=C(/NCc1ccc(F)cc1Cl)Nc1cc(-c2ccc(F)cc2)[nH]n1)c1ccc(Cl)c(F)c1 [Compound A-142] | > 5.00 |  | > 5.00 |
| O=C(/N=C(/NCc1ccc(F)cc1Cl)Nc1cc(-c2ccccc2)[nH]n1)c1ccc(Cl)c(F)c1 [Compound A-143] | > 5.00 |  | > 5.00 |
| O=C(/N=C(/Nc1cc(F)cc(Cl)c1)Nc1cc(-c2cccs2)[nH]n1)c1ccc(Cl)c(F)c1 [Compound A-144] | > 5.00 |  | > 5.00 |
| O=C(/N=C(/Nc1cc(F)cc(Cl)c1)Nc1cc(-c2ccc(F)cc2)[nH]n1)c1ccc(Cl)c(F)c1 [Compound A-145] | > 5.00 |  | > 5.00 |
| O=C(/N=C(/Nc1cc(F)cc(Cl)c1)Nc1cc(C2CC2)[nH]n1)c1ccc(Cl)c(F)c1 [Compound A-146] | > 5.00 |  | > 5.00 |
| O=C(/N=C(/Nc1cc(F)cc(Cl)c1)Nc1cc(C2CCC2)[nH]n1)c1ccc(Cl)c(F)c1 [Compound A-147] | > 5.00 |  | > 5.00 |
| COc1ccc(-c2cc(N/C(=N\C(=O)c3ccc(Cl)c(F)c3)Nc3cc(F)cc(Cl)c3)n[nH]2)cc1 [Compound A-148] | < 5.00 |  | < 5.00 |
| O=C(N=C(Nc1cc(F)cc(Cl)c1)Nc1cc(-c2ccc(Cl)cc2)n[nH]1)c1ccc(Cl)c(F)c1 [Compound A-149] | > 5.00 | > 5.00 |  |
| Cc1ccc(-c2cc(N/C(=N\C(=O)c3ccc(Cl)c(F)c3)Nc3cc(F)cc(Cl)c3)n[nH]2)cc1 [Compound A-150] | > 5.00 |  | > 5.00 |
| O=C(/N=C(/Nc1cc(F)cc(Cl)c1)Nc1cc(-c2ccccc2)[nH]n1)c1ccc(C(F)(F)F)cc1 [Compound A-151] | > 5.00 |  | < 5.00 |
| CC(C)(C)NC(=NC(=O)c1ccc(Cl)c(F)c1)Nc1cc(-c2ccc(F)cc2)n[nH]1 [Compound A-152] | > 5.00 | > 5.00 |  |
| CC(C)(C)NC(=NC(=O)c1ccc(C(F)(F)F)cc1)Nc1cc(-c2ccccc2)[nH]n1 [Compound A-153] | > 5.00 | > 5.00 |  |
| O=C(/N=C(/Nc1cc(F)cc(Cl)c1)Nc1cc(-c2ccc(F)cc2)[nH]n1)c1ccc(C(F)(F)F)cc1 [Compound A-154] | > 5.00 |  | > 5.00 |
| Cc1cc(N/C(=N\C(=O)c2ccc(C(F)(F)F)cc2)NCC(C)(C)C)n[nH]1 [Compound A-155] | > 5.00 |  | > 5.00 |
| O=C(/N=C(\Nc1cc(-c2ccc(F)cc2)[nH]n1)N1CCCC1)c1ccc(F)cc1 [Compound A-156] | < 5.00 |  | < 5.00 |
| COc1ccccc1C(=O)/N=C(\Nc1cc(-c2ccc(F)cc2)[nH]n1)NC(C)(C)C [Compound A-157] | < 5.00 |  | < 5.00 |
| O=C(/N=C(\Nc1cc(-c2ccc(CO)cc2)[nH]n1)NC1CCCC1)c1ccc(F)c(F)c1 [Compound A-158] | < 5.00 |  | < 5.00 |
| CC(C)(C)N/C(=N/C(=O)c1ccc(F)c(F)c1)Nc1cc(-c2ccc(CO)cc2)[nH]n1 [Compound A-159] | > 5.00 |  | > 5.00 |
| CCOCCCN/C(=N/C(=O)c1ccc(F)c(F)c1)Nc1[nH]nc(-c2ccc(Cl)cc2)c1F [Compound A-160] | > 5.00 |  | < 5.00 |
| CC(C)CN/C(=N/C(=O)c1ccc(F)c(F)c1)Nc1[nH]nc(-c2ccc(Cl)cc2)c1F [Compound A-161] | < 5.00 |  | < 5.00 |
| CC(C)(C)N/C(=N/C(=O)c1ccc(F)c(F)c1)Nc1[nH]nc(-c2ccc(Cl)cc2)c1F [Compound A-162] | > 5.00 |  | > 5.00 |
| CC(C)CNC(=NC(=O)c1ccc(N2CCOCC2)nc1)Nc1cc(-c2ccc(F)cc2)n[nH]1 [Compound A-163] | > 5.00 | > 5.00 |  |
| CC(C)(C)N/C(=N/C(=O)c1ccc(N2CCOCC2)nc1)Nc1cc(-c2ccc(F)cc2)[nH]n1 [Compound A-164] | > 5.00 |  | > 5.00 |
| CC(C)CN/C(=N/C(=O)c1cccnc1C(F)(F)F)Nc1cc(-c2ccc(F)cc2)[nH]n1 [Compound A-166] | > 5.00 |  | > 5.00 |

| SMILES | pIC50 (F1F0-ATPase) | pEC50 (Ramos cells; Homo sapiens) | pEC50 (Ramos cells) |
| --- | --- | --- | --- |
| CC(C)(C)N/C(=N/C(=O)c1cccnc1C(F)(F)F)Nc1cc(-c2ccc(F)cc2)[nH]n1 [Compound A-167] | > 5.00 |  | > 5.00 |
| COc1cccc(C(=O)/N=C(/Nc2cc(F)cc(Cl)c2)Nc2cc(-c3ccc(Cl)cc3)[nH]n2)c1 [Compound A-168] | > 5.00 |  | > 5.00 |
| COc1cccc(C(=O)/N=C(/NCC(C)C)Nc2cc(-c3ccc(Cl)cc3)[nH]n2)c1 [Compound A-169] | > 5.00 |  | > 5.00 |
| CCC(C)N/C(=N/C(=O)c1cccc(OC)c1)Nc1cc(-c2ccc(Cl)cc2)n[nH]1 (stereo not shown) [Compound A-170] | > 5.00 | > 5.00 |  |
| COc1cccc(C(=O)/N=C(/NCC(C)C)Nc2cc(-c3ccc(F)cc3)[nH]n2)c1 [Compound A-171] | > 5.00 |  | > 5.00 |
| CCC(C)N/C(=N/C(=O)c1cccc(OC)c1)Nc1cc(-c2ccc(F)cc2)n[nH]1 (stereo not shown) [Compound A-172] | > 5.00 | > 5.00 |  |
| COC(=O)Cc1ccc(N/C(=N/C(=O)c2ccc(F)cc2)Nc2cc(C(F)(F)F)n[nH]2)cc1 [Compound A-173] | > 5.00 | > 5.00 |  |
| CCc1cc(C(=O)/N=C(\Nc2cc(-c3ccc(F)cc3)n[nH]2)NC(C)CC)ccn1 (stereo not shown) [Compound A-174] | > 5.00 | > 5.00 |  |
| CCOCCCN/C(=N/C(=O)c1ccnc(CC)c1)Nc1cc(-c2ccc(F)cc2)[nH]n1 [Compound A-175] | > 5.00 |  | < 5.00 |
| CCc1cc(C(=O)N=C(NCC(C)C)Nc2cc(-c3ccc(F)cc3)n[nH]2)ccn1 [Compound A-176] | > 5.00 | > 5.00 |  |
| CCc1cc(C(=O)/N=C(\Nc2cc(-c3ccc(F)cc3)[nH]n2)NC(C)(C)C)ccn1 [Compound A-177] | > 5.00 |  | > 5.00 |
| CCC(C)N/C(=N/C(=O)c1ccc(Cl)c(F)c1)Nc1cc(C)n[nH]1 (stereo not shown) [Compound A-178] | > 5.00 | > 5.00 |  |
| Cc1cc(NC(=NC(=O)c2ccc(Cl)c(F)c2)NCCC(F)(F)F)[nH]n1 [Compound A-179] | < 5.00 | < 5.00 |  |
| CCOC[C@H](C)N/C(=N/C(=O)c1ccc(Cl)c(F)c1)Nc1cc(C)[nH]n1 [Compound A-180] | > 5.00 |  | < 5.00 |
| Cc1cc(NC(=NC(=O)c2ccc(Cl)c(F)c2)NC(C)(C)C)[nH]n1 [Compound A-181] | > 5.00 | > 5.00 |  |
| COc1ccc(C(=O)/N=C(/NCC(C)C)Nc2cc(-c3ccc(F)cc3)[nH]n2)cn1 [Compound A-182] | > 5.00 |  | > 5.00 |
| Cc1cc(N/C(=N\C(=O)c2ccc(C(F)(F)F)cc2)NCCC(F)(F)F)n[nH]1 [Compound A-183] | > 5.00 |  | > 5.00 |
| CCOCCCN/C(=N/C(=O)c1ccc(C(F)(F)F)cc1)Nc1cc(C)[nH]n1 [Compound A-184] | < 5.00 |  | < 5.00 |
| Cc1cc(N/C(=N\C(=O)c2ccc(C(F)(F)F)cc2)NC2CCCC2)n[nH]1 [Compound A-185] | > 5.00 |  | > 5.00 |
| Cc1cc(N/C(=N\C(=O)c2ccc(F)c(F)c2)NCCC(F)(F)F)n[nH]1 [Compound A-186] | < 5.00 |  | < 5.00 |
| Cc1cc(N/C(=N\C(=O)c2ccc(F)c(F)c2)NCC(C)(C)C)n[nH]1 [Compound A-187] | > 5.00 |  | > 5.00 |
| Cc1cc(N/C(=N\C(=O)c2ccc(F)c(F)c2)NC2CCCC2)n[nH]1 [Compound A-188] | > 5.00 |  | < 5.00 |
| Cc1cc(N/C(=N\C(=O)c2ccc(C(F)(F)F)cc2)NCC(C)C)n[nH]1 [Compound A-189] | > 5.00 |  | > 5.00 |
| Cc1cc(N/C(=N\C(=O)c2ccc(C(F)(F)F)cc2)NC(C)C)n[nH]1 [Compound A-190] | < 5.00 |  | < 5.00 |
| Cc1cc(N/C(=N\C(=O)c2ccc(F)c(F)c2)NCC(C)C)n[nH]1 [Compound A-191] | < 5.00 |  | < 5.00 |
| Cc1cc(N/C(=N\C(=O)c2ccc(F)c(F)c2)NC(C)(C)C)n[nH]1 [Compound A-192] | > 5.00 |  | > 5.00 |
